Reference: patent publication USRE47493E1, “Substituted bicyclic dihydropyrimidinones and their use as inhibitors of neutrophil elastase activity” (Boehringer Ingelheim International GmbH, priority 2014, dated 2019)
In brackets after ≈: the same amount, converted by molar mass.

Legend:
[1] = target: Human neutrophil elastase (Homo sapiens (Human), UniProt P08246); experiment: Human Neutrophil Elastase Assay; format: biochemical; details: human neutrophil elastase, substrate MeOSuc-Ala-Ala-Pro-Val-AMC, pH 7.5; read-out: IC50
Human neutrophil elastase, sequence (P08246 30-267): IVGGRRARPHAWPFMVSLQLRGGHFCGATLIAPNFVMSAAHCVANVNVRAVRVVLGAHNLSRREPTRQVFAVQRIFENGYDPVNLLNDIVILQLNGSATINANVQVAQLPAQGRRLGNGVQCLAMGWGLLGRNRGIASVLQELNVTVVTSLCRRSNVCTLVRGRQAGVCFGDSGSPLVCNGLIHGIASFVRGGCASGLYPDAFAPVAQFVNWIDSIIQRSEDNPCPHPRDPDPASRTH
Method: Human Neutrophil Elastase Assay
Materials: Human neutrophil elastase was purchased from Calbiochem (Cat.No.: 324681) and the elastase substrate MeOSuc-Ala-Ala-Pro-Val-AMC from Bachem (Cat.No.: I-1270). All other materials were of the highest grade commercially available.
The following buffers were used: Compound buffer: 100 mM Tris, 500 mM NaCl, adjusted to pH 7.5; Assay buffer: 100 mM Tris, 500 mM NaCl, adjusted to pH 7.5, containing 0.01% BSA.
Assay conditions: Test compounds were prediluted in DMSO and subsequently in compound buffer (5% DMSO final). 5 μL of these compound dilutions were mixed with 10 μl Neutrophil elastase (9 ng/ml in assay buffer) in a black 384 well OptiPlate (Perkin Elmer, Cat No.: 6007270) and incubated for 15 min at room temperature. Subsequently 10 μL substrate solution in assay buffer were added (250 nM final concentration) and the plates were incubated for 60 min at room temperature. After inactivation of the enzyme, fluorescence intensities were measured at 380 nm excitation and 460 nm emission wavelengths.
Each plate contains wells with a high value control (DMSO+enzyme+substrate) and wells with a low value control (DMSO+inactivated enzyme+substrate). IC50 values were estimated using a sigmoidal concentration response curve with variable slope. Means of low values were taken as 0%, means of high values as 100%.

[2] = Assay for the Determination of Metabolic Stability with Human Liver Microsomes; format: in vitro ADME; details: pooled human liver microsomes, 37° C., NADPH
Method: Assay for the Determination of Metabolic Stability with Human Liver Microsomes
The metabolic degradation of the test compound is assayed at 37° C. with pooled human liver microsomes. The final incubation volume of […] per time point contains TRIS buffer pH 7.6 (0.1 M), magnesium chloride (5 mM), microsomal protein (1 mg/ml) and the test compound at a final concentration of […]. Following a short preincubation period at 37° C., the reactions are initiated by addition of beta-nicotinamide adenine dinucleotide phosphate, reduced form (NADPH, 1 mM) and terminated by transfering an aliquot into acetonitrile after different time points. Additionally, the NADPH-independent degradation is monitored in incubations without NADPH, terminated at the last time point. The rol remaining test compound after NADPH independent incubation is reflected by the parameter c(control) (metabolic stability). The quenched incubations are pelleted by centrifugation (10′000 g, 5 min) An aliquot of the supernatant is assayed by LC-MS/MS for the amount of parent compound.
The half-life (t1/2 INVITRO) is determined by the slope of the semilogarithmic plot of the concentration-time profile. The intrinsic clearance (CL_[…]) is calculated by considering the amount of protein in the incubation: CL_[…][μl/min/mg protein]=(ln 2/(half-life [min]*protein content [mg/ml]))*1′000.
The half-life (t1/2 INVITRO) values of selected compounds in the metabolic stability assay described above are listed in Table 15.

[3] = Assay for Determination of Aqueous Solubility; format: physicochemical; details: McIlvaine buffer pH 6.8, 2.5% DMSO
Method: Assay for Determination of Aqueous Solubility
The aqueous solubility of a compound is determined by comparing the amount dissolved in aqueous buffer (containing 2.5% DMSO) to the amount dissolved in an acetonitrile/water (1/1) solution. Starting from a 10 mM DMSO stock solution, aliquots are diluted with acetonitrile/water (1/1) and Mcllvaine buffer pH 6.8, respectively. After 24 h of shaking, the solutions or suspensions are filtered and analyzed by LC-UV. The amount dissolved in buffer is compared to the amount dissolved in the acetonitrile/water (1/1) solution. Solubility is measured from 0.001 to 0.125 mg/ml at a DMSO concentration of 2.5%. If more than 90% of the compound is dissolved in buffer, the value is marked with “>”.

| Compound | IC50 [1] | also measured |
| --- | --- | --- |
| COC(=O)CN1C(=O)N(c2cccc(C(F)(F)F)c2)C2=C(C(=O)CCC2)[C@@H]1c1ccc(C#N)cc1 [Example 31B, (S)-Methyl 2-(4-(4-Cyanophenyl)-2,5-dioxo-1-(3-(trifluoromethyl)phenyl)-1,2,5,6,7,8-hexahydroquinazolin-3(4H)-yl)acetate] | 7020 nM |  |
| CN(C)C(=O)CN1C(=O)N(c2cccc(C(F)(F)F)c2)C2=C(C(=O)CCC2)[C@H]1c1ccc(C#N)cc1 [Example 34A, (R)-2-(4-(4-Cyanophenyl)-2,5-dioxo-1-(3-(trifluoromethyl)phenyl)-1,2,5,6,7,8-hexahydroquinazolin-3(4H)-yl)-N,N-dimethylacetamide] | 1.5 nM |  |
| CN(C)C(=O)CN1C(=O)N(c2cccc(C(F)(F)F)c2)C2=C(C(=O)CCC2)[C@@H]1c1ccc(C#N)cc1 [Example 34B, (S)-2-(4-(4-Cyanophenyl)-2,5-dioxo-1-(3-(trifluoromethyl)phenyl)-1,2,5,6,7,8-hexahydroquinazolin-3(4H)-yl)-N,N-dimethylacetamide] | 570 nM |  |
| Cn1ncc2c1CN(C(=O)CN1C(=O)N(c3cccc(C(F)(F)F)c3)C3=C(C(=O)CCC3)[C@H]1c1ccc(C#N)cc1)C2 [Example 35A, (R)-4-(3-(2-(1-Methylpyrrolo[3,4-c]pyrazol-5(1H,4H,6H)-yl)-2-oxoethyl)-2,5-dioxo-1-(3-(trifluoromethyl)phenyl)-1,2,3,4,5,6,7,8-octahydroquinazolin-4-yl)benzonitrile] | < 1 nM |  |
| Cn1ncc2c1CN(C(=O)CN1C(=O)N(c3cccc(C(F)(F)F)c3)C3=C(C(=O)CCC3)[C@@H]1c1ccc(C#N)cc1)C2 [Example 35B, (S)-4-(3-(2-(1-Methylpyrrolo[3,4-c]pyrazol-5(1H,4H,6H)-yl)-2-oxoethyl)-2,5-dioxo-1-(3-(trifluoromethyl)phenyl)-1,2,3,4,5,6,7,8-octahydroquinazolin-4-yl)benzonitrile] | 26.8 nM |  |
| N#Cc1ccc(C2C3=C(CCCC3=O)N(c3cccc(C(F)(F)F)c3)C(=O)N2CC(=O)N2CCN3CCCC3C2)cc1 (stereo not drawn) [Example 36.56] | 5 nM |  |
| CN1C[C@@H](NC(=O)CN2C(=O)N(c3cccc(C(F)(F)F)c3)C3=C(C(=O)CCC3)C2c2ccc(C#N)cc2)CCC1=O (stereo partly drawn) [Example 36.61] | 12.7 nM |  |
| N#Cc1ccc(C2C3=C(CCCC3=O)N(c3cccc(C(F)(F)F)c3)C(=O)N2CC(=O)NCCN2CCNC2=O)cc1 (stereo not drawn) [Example 36.62] | 8.2 nM |  |
| N#Cc1ccc(C2C3=C(CCCC3=O)N(c3cccc(C(F)(F)F)c3)C(=O)N2C(=O)NCCO)cc1 (stereo not drawn) [Example 39.3] |  | t1/2 INVITRO [2]: >2.17 h; Aqueous solubility ([3]; 24 h): 6 µg/mL |
| CNC(=O)N1C(=O)N(c2cccc(C(F)(F)F)c2)C2=C(C(=O)CCC2)[C@@H]1c1ccc(C#N)cc1S(C)(=O)=O [Example 47B, (R)-4-(4-Cyano-2-(methylsulfonyl)phenyl)-N-methyl-2,5-dioxo-1-(3-(trifluoromethyl)-phenyl)-1,2,5,6,7,8-hexahydroquinazoline-3(4H)-carboxamide] | 94 nM |  |
| CS(=O)(=O)c1cc(C#N)ccc1C1C2=C(CCCC2=O)N(c2cccc(C(F)(F)F)c2)C(=O)N1CC(F)F (stereo not drawn) [Example 58.3] | 3.1 nM |  |
| COCCCN1C(=O)N(c2cccc(C(F)(F)F)c2)C2=C(C(=O)CCC2)C1c1ccc(C#N)cc1S(C)(=O)=O (stereo not drawn) [Example 58.4] | 11.3 nM |  |
| CS(=O)(=O)c1cc(C#N)ccc1C1C2=C(CCCC2=O)N(c2cccc(C(F)(F)F)c2)C(=O)N1CC(=O)N1CCC1 (stereo not drawn) [Example 62.1] | < 1 nM |  |
| CS(=O)(=O)c1cc(C#N)ccc1C1C2=C(CCCC2=O)N(c2cccc(C(F)(F)F)c2)C(=O)N1CC(=O)N1CCCC1 (stereo not drawn) [Example 62.2] | < 1 nM |  |
| CN(CCO)C(=O)CN1C(=O)N(c2cccc(C(F)(F)F)c2)C2=C(C(=O)CCC2)C1c1ccc(C#N)cc1S(C)(=O)=O (stereo not drawn) [Example 62.3] | 1.3 nM |  |
| CS(=O)(=O)c1cc(C#N)ccc1C1C2=C(CCCC2=O)N(c2cccc(C(F)(F)F)c2)C(=O)N1CC(=O)N1CC2CC2C1 (stereo not drawn) [Example 62.4] | < 1 nM |  |
| CS(=O)(=O)c1cc(C#N)ccc1C1C2=C(CCCC2=O)N(c2cccc(C(F)(F)F)c2)C(=O)N1CC(=O)N1CCC(F)C1 (stereo not drawn) [Example 62.6] | < 1 nM |  |
| COCCN(C)C(=O)CN1C(=O)N(c2cccc(C(F)(F)F)c2)C2=C(C(=O)CCC2)C1c1ccc(C#N)cc1S(C)(=O)=O (stereo not drawn) [Example 62.7] | < 1 nM |  |
| COC1CCN(C(=O)CN2C(=O)N(c3cccc(C(F)(F)F)c3)C3=C(C(=O)CCC3)C2c2ccc(C#N)cc2S(C)(=O)=O)CC1 (stereo not drawn) [Example 62.8] | 11.6 nM |  |
| CN(Cc1cnn(C)c1)C(=O)CN1C(=O)N(c2cccc(C(F)(F)F)c2)C2=C(C(=O)CCC2)C1c1ccc(C#N)cc1S(C)(=O)=O (stereo not drawn) [Example 62.9] | 1.4 nM |  |
| N#Cc1ccc(C2C3=C(CCCC3=O)N(c3cccc(C(F)(F)F)c3)C(=O)N2C(=O)N[C@H]2CCC[C@@H]2O)cc1 (stereo partly drawn) [Example 70.11] | < 1 nM |  |
| N#Cc1ccc(C2C3=C(CCCC3=O)N(c3cccc(C(F)(F)F)c3)C(=O)N2C(=O)N[C@H]2CCCC[C@@H]2O)cc1 (stereo partly drawn) [Example 70.17] | 1.1 nM |  |
| CS(=O)(=O)c1cc(C#N)ccc1[C@@H]1C2=C(CCCC2=O)N(c2cccc(C(F)(F)F)c2)C(=O)N1C(N)=O [Example 75, (S)-4-(4-Cyano-2-(methylsulfonyl)phenyl)-2,5-dioxo-1-(3-(trifluoromethyl)phenyl)-1,2,5,6,7,8-hexahydroquinazoline-3(4H)-carboxamide] |  | half-life at 1 nM ([2]; pH 7.6, read-out: t1/2 INVITRO): > 2.17 h; solubility at 24 h ([3]; McIlvaine buffer pH 6.8 with 2.5% DMSO, aqueous buffer, kinetic from dmso stock): 79 µg/mL (≈ 148 µM) |
| CC(C)(CO)NC(=O)N1C(=O)N(c2cccc(C(F)(F)F)c2)C2=C(C(=O)CCC2)[C@H]1c1ccc(C#N)cc1S(C)(=O)=O [Example 75.13] | < 1 nM |  |
| CC(C)(O)CCNC(=O)N1C(=O)N(c2cccc(C(F)(F)F)c2)C2=C(C(=O)CCC2)[C@H]1c1ccc(C#N)cc1S(C)(=O)=O [Example 75.19] | < 1 nM |  |
